Key:
[1] = test system: HIV-1 vector with N155H IN mutant; conditions: cellular studies, HIV vectors bearing N155H mutant; ref [25]; cited from earlier work
[2] = target: HIV-1 integrase (IN), strand transfer (Human immunodeficiency virus type 1 group M subtype B, UniProt P12497); experiment: in vitro IN assay, strand transfer reaction; format: biochemical; conditions: ST IC50 of 5d-2 versus 4d
[3] = target: HIV-1 integrase (IN), 3′-processing (Human immunodeficiency virus type 1 group M subtype B, UniProt P12497); experiment: in vitro IN assay, 3′-processing reaction; format: biochemical

Cc1nnc(C(=O)NC(C)(C)c2nc(C(=O)NCc3ccc(F)cc3)c(O)c(=O)n2C)o1 [raltegravir]
loss of antiviral potency [1]: ~40 fold

CC(C)c1c(O)c(O)c2c(c1S(=O)(=O)N(C)C)CN(Cc1ccc(F)c(Cl)c1)C2=O [Compound 5d-2]
enhancement in the ST reaction relative to parent 4d [2]: 20 fold
IC50 [3]: > 111 µM

CCCCc1c(O)c(O)c2c(c1S(=O)(=O)N(C)C)CN(Cc1ccc(F)c(Cl)c1)C2=O [Compound 5c-2]
IC50 [3]: > 111 µM

CCCCc1cc2c(c(O)c1O)C(=O)N(Cc1ccc(F)c(Cl)c1)C2 [Compound 4c]
IC50 [3]: > 111 µM

CN(C)S(=O)(=O)c1ccc(-c2cc3c(c(O)c2O)C(=O)N(Cc2ccc(F)c(Cl)c2)C3)cc1 [Compound 4h]
IC50 [3]: > 111 µM

CC(C)c1cc2c(c(O)c1O)C(=O)N(Cc1ccc(F)c(Cl)c1)C2 [Compound 4d]
IC50 [3]: > 111 µM

O=C1c2c(cc(-c3ccccc3)c(O)c2O)CN1Cc1ccc(F)c(Cl)c1 [Compound 4e]
IC50 [3]: > 111 µM

CC(C)c1c(O)c(O)c2c(c1S(=O)(=O)N1CCOCC1)CN(Cc1ccc(F)c(Cl)c1)C2=O [Compound 5d-10]
IC50 [3]: > 111 µM

Cc1cc2c(c(O)c1O)C(=O)N(Cc1ccc(F)c(Cl)c1)C2 [Compound 4b]
IC50 [3]: > 111 µM
